Experimental data published in patent US10226440B2, “Oral compositions comprising creatine” (Eddie O'Gorman Ltd, priority 2011, dated 2019).

Test: HPLC creatine levels after storage of other aqueous gels, jellies, suspensions and water controls
Format: physicochemical
Details: 10 g in 50 ml water, stored at 4 deg Celsius and room temperature, after one month
Experimental: A spectrophotometric scan of the colloidal creatine (10 mg ml^−1 dissolved in HPLC mobile phase), the CARG (1:15 dilution in HPLC mobile phase) and the HPLC mobile phase was performed to determine the appropriate detection wavelength for the HPLC assay. The scan was performed over a wavelength range from 190-950 nm. It was decided to use 220 nm as the detection wavelength.
Due to the viscous nature of the CARG it had to be diluted by a factor of 10 at the very least before samples could be injected onto the HPLC. In general a dilution factor of 1/15 was used in the analysis of the samples. The variation in peak area over the course of the experiment was not significant and gave a standard deviation of 1351126.18 (approximately equivalent to 0.13 mg ml^−1 creatine), see Tables 1 and 2.
Two aqueous gels, (A) and (B), were created containing colloidal creatine were made by mixing with water and heating to 55 deg Celsius:
This was stored in a 100 ml plastic dispensing container at room temperature. Creatine levels were measured after 3 months using the above HPLC method and found to have decreased by 22% at 4 deg Celsius and only 5% at room temperature.
Another oral product was made using colloidal creatine in standard commercially available jelly beans reconstituted in water. The concentrations of colloidal creatine per ml of reconstituted jelly bean were 0, 20, 50, 100 and 200 mg/ml. […]

loss of creatine content: 90%
Structure (SMILES): CN(CC(=O)O)C(=N)N [creatine, creatine (2-(methylguanidino)ethanoic acid)]
